Literature values as cited in US20160193372A1, “METHODS OF IDENTIFYING SURROGATE IMAGING AGENTS FOR ALPHA EMITTER RADIOPHARMACEUTICALS AND THEIR USE IN TREATMENT OF DISEASE” (THE JOHNS HOPKINS UNIVERSITY, priority 2012, published 2016).

Test system: mineralizing or proliferating bone matrix
Settings: very high administered activities

^153Sm-EDTMP
pain effect in OS: pain palliation | therapeutic efficacy in OS: minimal therapeutic efficacy
